# Reference: patent US6590123B2, “Aminobenzoic acid derivatives having anti-tumorigenic activity, methods of making and using the same” (Mount Sinai School of Medicine of New York University, priority 1998, dated 2003)
# Several values for one entry are separate records, joined by “and”; a condition that tells them apart may be missing. Equal values may be shown once. Entries after “also recorded” stand apart in the source; their conditions may differ. Where a name gives a salt, the structure may show the parent alone. Read-outs that look alike come from different tables or passages of the source.
# Key:
# CEM cells [1] = test: Cytotoxicity, ID50 and ID90 by trypan blue staining; assay type: cell-based; details: for IC90 / IC50: Homo sapiens, CCRF-CEM; for IC90: 48 h; for IC50: 48 hr, NT = Non-toxic to CEM cells
# Description: CEM cells, a human T-cell lymphoblastoid leukemia cell line (American Type Culture Collection, Rockville, Md.), were cultured in suspension (Iscove's Dulbecco's Medium) supplemented with 10% heat inactivated fetal bovine serum (FBS), penicillin (250 μ/ml) and streptomycin (250 μl/ml). Cells were incubated at 37° C. in 5% C02 and only those cells in exponential growth were used.
# CEM cells were seeded into 96-well microplates (Falcon, Oxnard, Calif.) at 10^5 cell per well, then treated with 0-10 μg/ml of the candidate compounds for 48 h at 37° C. yielding a total volume of 250 μ/well. Cell viability was assessed by trypan blue staining. ID50 and ID90 were defined as the concentration killing 50% or 90% of the cells in comparison with untreated controls, and calculated by non-linear regression analysis.
# Cells in suspension culture were seeded into 96-well microplates (Falcon, Oxnard, Calif.) at 10^5 cell per well, followed, by treatment with 0-10 μg/ml of the candidate compounds for 48 hr at 37° C. with total volume of 250 μl per well. Cell viability was assessed by trypan blue exclusion.
# The ID50 and ID90 was determined in duplicate in every set of experiments, and each experiment was repeated 3 times under identical conditions. ID50 and ID90 were defined as drug concentrations that induced 50% or 90% cellular death in comparison with untreated controls and calculated by non-linear regression analysis. […]
# CEM cells [2] = test: Morphology by microscopy (mitotic arrest, apoptosis, necrosis); assay type: cell-based, human; details: for Activities of inducing Apoptosis / Activities of inducing Mitotic block / Activities of inducing Necrosis / morphological effect on leukemic cells: CEM leukemic cells; for Activities of inducing Apoptosis / Activities of inducing Mitotic block / Activities of inducing Necrosis: % of affected cells; for Mitotic arrest, %: % of mitotic cells after 24 h incubation, optical microscopy
# Description: Slides for examination of mitosis were prepared on a cytospin centrifuge (Shandon Southern Products Ltd, England ) at 700 g for 5 min. Slides were air dried, fixed in methanol and stained with Giemsa (Harleco, N.J.) at room temperature for 15 min. Cells in mitotic arrest were recognized by the disappearance of nuclear membrane and by the appearance of chromosomal scattering throughout the cytoplasm (reference 1). The % of mitotic cells were counted after 24 h incubation using optical microscopy. Apoptotic cells were identified using common criteria, i.e., shrinkage in cell size, chromatin condensation and fragmentation of the nucleus into discrete masses (reference 2).
# Cell samples on slides were prepared by a Cytospin centrifuge (Shandon Southern Products Ltd, England) at 700 g for 5 min. The slides were air dried, fixed in methanol and stained with Giemsa (Harleco, N.J.) at room temperature for 15 min. Alterations of nuclei, membranes and morphological features were observed by light microscopy. Cells in mitotic phase were recognized by the appearance of their chromosomes dispersed in the cytoplasm, and by the disappearance of nuclear membrane. Apoptotic-cells were identified using previously defined criteria, i.e., shrinkage in cell size, chromatin condensation and fragmentation of the nucleus into discrete masses (references 2 & 3). Necrotic cells were differentiated from apoptotic cells by observing swollen cytoplasm and the disappearance of cell membrane prior to the destruction of the nucleus.
# CEM cells [3] = test: DNA fragmentation by electrophoresis (apoptosis); assay type: cell-based, human; details: 48 hours, compound 8 0.025 μg/ml, compound 9 0.005 μg/ml, fluorine compound 5.0 μg/ml, chlorine compound 0.75 μg/ml
# Description: DNA fragmentation was determined by a method reported previously (reference 3). Briefly, cells were treated in 1 ml lysis buffer (0.01M Tris. HCL pH 8.0, 0.01M NaCl, 0.01M EDTA pH 8.0 and 5% sodium dodecyl sulfate) containing 1 μg/ml protease K for 1 h at 50° C. The resulting products were extracted with phenol and chloroform:isoamylalcohol (24:1, v/v), and precipitated with ethanol followed by centrifugation at 7800 g (Sorvall RC-5B Du Pont, Newtown, Conn.). The ethanol was removed and the dry pellets of nucleic acid were resuspended in 10 mM Tris-HCL/1 mM EDTA solution. When DNA content was determined spectrophotometrically all samples had A260/A280 ratio≧2. The DNA samples were then treated with RNase (Sigma, St. Louis, Mo.) at a final concentration of 0.1 μg/μl for 20 min at 37° C. before gel loading. Approximately 4 μg size DNA aliquots were loaded onto horizontal agarose gel (1.5%) prepared with 1% ethidium bromide. Electrophoresis was performed at 75 volts for 2 h and the DNA patterns were visualized with UV light.
# […] After incubation, cells were washed twice in PBS. Cell pellets were resuspended in drug-free medium and incubated for 48 hr at 37° C. Cell viability, morphology, mitotic spindles, cell cycle distribution and apoptosis were determined 24 hr and 48 hr post pulse exposure.
# Soluble DNA from cells was extracted by the method reported previously (14). Briefly, after washing with PBS, cells were treated in 1 ml lysis buffer (0.01 M Tris.HCL pH 8.0, 0.01 M NaCl, 0.01M EDTA pH 8.0 and 5% sodium dodecyl sulfate) containing 1 μg/ml proteinase K for 1 hr at 50° C. The resulting products were extracted with phenol and chloroform:isoamylalcohol (24:1, v/v), and precipitated with ethanol followed by centrifugation at 7800 g (Sorvall RC-5B Du Pont, Newtown, Conn.). The ethanol was removed and the dry pellet of nucleic acid was resuspended in 10 mM Tris-HCL/1 mM EDTA solution. DNA content was determined spectrophotometrically by measuring absorption at 260 nm (A260). All samples, had A260/A280≧2. The DNA samples were then treated with RNase (Sigma, St. Louis, Mo.) at a final concentration of 0.1 μg/l for 20 min at 37° C. before gel loading. The DNA sample (4 μg) was analyzed in 1.5% horizontal agarose gel prepared with 1% ethidium bromide. Electrophoresis was performed at 75 volts for 2 hours and the DNA migration was visualized under UV light.
# Purified tubulin = test: Inhibition of microtubule assembly by spectrophotometry, cell free system; assay type: biochemical, calf; details: cell free tubulin, up to 10 μg/ml
# Description: Purified tubulin was purchased from Sigma (St. Louis, Mo.). The effects of compounds 6, 7, 8, 9, paclitaxel and vinblastine on the microtubule assembly-disassembly process were determined using conditions recommended by the vendor. For assembly inhibition, 100 μl tubulin solution (500-600 μg protein/ml) was mixed gently with 400 μl reaction buffer containing 0.1 M MES (2-[N-morpholino]ethane sulfonic acid), 1 mM EGTA ([…]-N,N,N′,N′-tetraacetic acid), 0.5 mM MgCl2, 0.1 mM EDTA and 2.5 M gycerol at 37° C. Compounds 6, 7, 8, and 9 were next added to each sample at final concentrations of 10, 10, 1 and 1 μg/ml, respectively. After adding GTP to each sample to a final concentration of 1 mM, the microtubule assembly process was monitored by measuring the change of absorbance (OD) at 350 nm on a spectrophotometer (Ultrospec III, Pharmacia LKB, Uppsala, Sweden). A completed assembly process was observed within 40 min at room temperature. For disassembly inhibition, compounds 6, 7, 8, and 9 were added, at the above concentrations, to covets with repolymerized microtubules as described above, and incubated in melting ice. Changes of absorbance (OD) were monitored at 350 nm for 30 min until the OD values in the controls returned to the starting level, i.e., when the assembly-disassembly cycle was completed.
# Purified tubulin from calf brain was purchased from Sigma (St. Louis, Mo.). The effects of 3-BAABU (3-bromoacetoamido, benzoylurea) on the microtubule assembly-disassembly process were determined using the conditions recommended by the vendor. For assembly inhibition, 100 μl tubulin solution (500-600 μg protein/ml) was mixed gently with 400 μl reaction buffer containing 0.1 M MES, 1 mM EGTA, 0.5 mM MgCl2, 0.1 mM EDTA and 2.5 M glycerol at 37° C. 3-BAABU, paclitaxel or vinblastine were then added to each sample cuvet at final concentrations of 3.3, 23 or 22 μM, respectively. After adding GTP to each sample to a final concentration of 1 mM, the microtubule assembly process was monitored by measuring the change of absorbance (OD) every 5 min at 350 nm on a spectrophotometer (Ultrospec III, Pharmacia LKB, Uppsala, Sweden). A completed assembly process was observed within 40 min at room temperature. For disassembly inhibition, 3-BAABU (3.3 μM), paclitaxel (23 μM) or vinblastine (22 μM) was added to a cuvet with repolymerized microtubules according to the method described above, and incubated in melting ice. Changes of absorbance (OD) were monitored at 350 nm for 30 min until the OD values in the controls returned to the starting level, i.e., completion of the assembly-disassembly cycle. Solvent solutions were used as control and had no effect in either the assembly or disassembly process.
# CEM cells [4] = test: Cell cycle analysis by flow cytometry; assay type: cell-based, human; details: 8 h treatment, compound 6 2.5 μg/ml, compound 8 0.025 μg/ml, compound 9 0.005 μg/ml
# [5] = system: P338 leukemia lymphoma cells; test: Survival and ED50 in mice implanted i.p. with P338 lymphoma; assay type: in vivo, male C57 BL/6JX mice
# Description: FIG. 9 is a plot graph of the survival rate of male C57 BL/6JX mice implanted (i.p.) with P338 lymphoma, from 10 to 40 days after implantation. Two groups were used for the study: a control group of ten and a test group of ten that were treated with 20 mg/kg, (i.p.) of compound 8 at 2 and 8 days post-implantation.
# (§1) The in vivo efficacy of 3-BAABU and 3-IAABU of the present invention was asssessed in a murine model, along with known anti-tubule agents, vinblastine and paclitaxel, as a comparative standard. Approximately 10^6 P338 leukemia lymphoma cells/mouse were implanted intra-peritoneal (i.p.) into male C57 BL/6JX mice (Jackson Laboratories, N.Y.). On days 2 and 8 post-implantation, drugs were administrated i.p. at the following concentration ranges: 3-BAABU from 16.6 to 116 μmole/kg, 3-IAABU from 14.4 to 101 μmole/kg, vinblastine from 2.2 to 20 μmole/kg and paclitaxel from 28 to 57 μmole/kg.
# (§2) Both control and treated animals were examined for ascitic tumor burden daily for 35 days. […] Therapeutic index was defined as the ratio of LD50 (lethal dose) to ED50 (effective dose).
# [6] = LD50 (lethal dose) in mice; details: mice, i.p.
# From the text: as §1, §2
# [7] = CEM cells, concentration killing 90% of the cells, read-out: ID90 (the source's name)
Molecule,Activities of inducing Apoptosis (CEM cells [2]),Activities of inducing Mitotic block (CEM cells [2]),Activities of inducing Necrosis (CEM cells [2]),IC90 (CEM cells [1]; [7]),"Mitotic arrest, % (CEM cells [2]; CEM cells) [%]",other results
3-bromopropionylamino benzoylurea [Compound 3-BPABU],− (−:<10%),− (−:<10%),− (−:<10%),,,cytotoxic activity (ID50 level) compared with 3-BAABU (CEM cells [1]; CEM leukemic cells): cytotoxic activity was eliminated
"NC(=O)NC(=O)c1ccc(NC(=O)CI)cc1 [9 (4-position), 4-iodoacetoamido, benzoylurea]",,,,0.04 µg/mL and 112 nM,<10,
"NC(=O)NC(=O)c1ccc(NC(=O)CBr)cc1 [Compound 4-BAABU, 4-bromoacetylamino benzoylurea]",− (−:<10%),− (−:<10%),++++ (++++: >75%),0.15 µg/mL and 497 nM,<10,IC50 (CEM cells [1]; CEM leukemic cells): 230 nM; morphological effect on leukemic cells (CEM cells [2]): necrotic cell death
"NC(=O)NC(=O)c1cccc(NC(=O)CF)c1 [Compound 6, 3-Fluoroacetoamido, benzoylurea]",,,,,<10,"IC90 (CEM cells [1]; read-out: ID90): > 2.5 µg/mL and > 10 µM; cytotoxicity against human leukemic cells (CEM) (CEM cells [1]; at a concentration as high as 10 μM): no cytotoxicity; mitotic arrest (blocking) effect, morphological appearance (CEM cells [2]; CEM cells, 24 h, compound 8 at 0.025 μg/ml, compound 9 at 0.005 μg/ml): failed to induce mitotic arrest; interference with the cell cycle (CEM cells [2]; CEM cells, after 24 hours treatment, 2.5 μg/ml): virtually no interference; apoptosis, DNA fragmentation on gel electrophoresis (CEM cells [3]): did not induce apoptosis; effect on microtubule assembly (Purified tubulin): no effect; shift of the cell population from G0/G1 (2N) to G2/M (4N), DNA profile (CEM cells [4]): undetectable change; also recorded: identical to that of the untreated control"
"CCOC(=O)c1cccc(NC(=O)CCl)c1 [Compound 10, Ethyl-3-chloroacetoamido, benzoate]",,,,0.82 µg/mL and 3.39 µM,<10,
"CCOC(=O)c1cccc(NC(=O)CBr)c1 [Compound 11, Ethyl-3-bromoacetoamido, benzoate]",++++ (++++: >75%),− (−:<10%),− (−:<10%),0.18 µg/mL and 740 nM,<10,fold increase of ID50 relative to 3-BAABU (CEM cells [1]; CEM leukemic cells): 10 fold; IC50 (CEM cells [1]; CEM leukemic cells): 590 nM; morphological effect on leukemic cells (CEM cells [2]): caused apoptosis
"CC[C@]1(O)C[C@@H]2CN(CCc3c([nH]c4ccccc34)[C@@](C(=O)OC)(c3cc4c(cc3OC)N(C)[C@H]3[C@@](O)(C(=O)OC)[C@H](OC(C)=O)[C@]5(CC)C=CCN6CC[C@]43[C@@H]65)C2)C1 [Vinblastine, vinblastine sulfate]",,,,,,"Survival IL % ([5]; P338 Lymphoma (i.p.), 2 mg/kg ip on days 2 & 8): 21%; Survival Mean ± SD ([5]; P338 Lymphoma (i.p.), 2 mg/kg ip on days 2 & 8, control 15.1 ± 2.3): 18.2 ± 6.3; ED50 ([5]; P338 leukemia lymphoma i.p. in mice, drug i.p. on days 2 and 8): 4.5 µmol/kg; LD50 [6]: 9.2 µmol/kg"
